Reference: patent US4687481A, “Transdermal drug delivery system” (priority 1986, dated 1987)
“And” between values parts separate entries of the source, which are not always exact repeats. Identical values can stand only once. “Also recorded” adds a separate entry of the source. Like-named read-outs stand apart in the source and are kept apart here.

What was measured:
[1] = cited from earlier work; for FLUX (Feldman 1969) / FLUX (SCHAEFER 1979): human skin; for flux rates in comparison to the corticosterones: Table I
[2] = In vitro mouse skin permeation from patch, Franz diffusion cell; settings: for Rate of permeation: 2.4 sq. cm., estradiol value is a minimum not corrected for saturation effects, maximum flux expected nearly 2-3 times greater
Procedure: A typical sustained release for the release of levonorgestrel is: a 9.4 square centimeter of Johnson and Johnson Rayon™ First Aid Tape-Hypo-Allergenic--1 inch wide, 1.5 inch long for the impervious backing and to form the adhesive layer and a 2 square centimeter ID--2.25 square centimeter OD--2/3 mm thick teflon ring. […] Microspheres are prepared from the levonorgestrel and the poly-L(-)lactide as follows: Prepare a 2.5 percent wt/v solution of polyvinyl alcohol (PVA) #523 in one liter of distilled water; prepare a 15 percent wt/v solution of poly-L-(-)lactide, approx. 1 R.S.V. in 300 ml of reagent grade methylene chloride; mix 5 ml of the poly-L-(-)lactide solution, 10 ml methylene chloride and 5 grams of levonorgestrel to form a uniform slurry; take the 1 l of PVA solution and pour it into a 2 l stainless steel beaker. Stir at approx. 1000 RPM (1550×0.7) and heat at low temperature, (approx. 35° C.); add levonorgestrel slurry. Heat approx. 4 hours, then turn off heat and stirrer; wet sieve off the 45-106 um size fraction; and dry in vacuum oven at room temperature and recover the solid microspheres. Then 45 mg of these solid microspheres are mixed with 85 mg of Vaseline or a viscous vehicle (trademark of Chesebrough-Pond's, Inc.). The Teflon ring is placed in the center on the adhesive side of the tape and the Vaseline mixture is then spread to uniform thickness iside the Teflon ring. The porous membrane is then placed over the mixture of Vaseline to form a complete patch. An estradiol patch is similarly prepared using 70 mg of Vaseline with 38 mg of microspheres containing estradiol.
In Vitro mouse skin permeation studies were conducted with a 2.4 square centimeter patch which was placed in a 20 mm diameter water jacketted Franz diffusion cell mounted on a 9-cell Drive Unit/Mounting Assembly. The water jacket temperature of the cells was controlled by a bath and water circulator which is maintained at 37° C. This system is widely used in the pharmaceutical industry for measuring the permeability of percutaneous patches across animal and cadaver skins.
Release of each drug was determined as a function of time by analysis of aliquots of the contents of the reservoir in a Waters High Pressure Liquid Chromatograph (HPLC) using a u Bondpak C-18 radial pack column with a mobile phase of 60% ethanol in water. The steroids were measured in a uv detector at a wavelength of 280 nm for estradiol and 254 for levonorgestrel.
Pieces of full thickness abdominal skin were freshly excised from a 6 week old male nude mice and mounted individually on the Franz diffusion cell. Before use, the skins were washed three times in 200 ml normal saline to remove extraneous and other soluble material. The face membrane of the system was applied to the stratum corneum side of the skin. The skin permeation profile of each drug was followed by removing the liquid from the receptor compartment for assay at the appropriate intervals. The compartment was then filled with fresh saline and the permeation continued. Release of the drug was monitored in a liquid chromatograph (HPLC).

[3] = Procedure: To obtain maximum flux rates aliquots of the reservoir were analyzed during a period of 8 hours on day 2, day 3, and day 7.
[4] = cited from earlier work; for oral effectiveness: "first pass" inactivation
[5] = cited from earlier work
[6] = implantable drug delivery systems; cited from earlier work
[7] = cited from earlier work; remark: listed apart in the source

C[C@]12C[C@H](O)[C@H]3[C@@H](CCC4=CC(=O)CC[C@@]43C)[C@@H]1CC[C@@H]2C(=O)CO [Corticosterone]
FLUX (Feldman 1969) [1]: 7.5 × 10^-12 MOLES/CM^2 HR

C[C@]12CC[C@@H]3c4ccc(O)cc4CC[C@H]3[C@@H]1CC[C@@H]2O [Estradiol, 17β estradiol]
permeation rate ([2]; 2.4 square centimeter estradiol patch, per day, mass unit not given): 5 | delivery across freshly excised mouse skin ([2]; 2.4 square centimeter patch (DermaPatch)): 5 micrograms/day | Minimum dose absorbed ([2]; Table 3, 2.4 sq. cm. patch): > 5.2 mcg./24 hr. | Rate of permeation ([2]; Table 3): > 0.09 mcg./sq. cm./hr. | mouse skin permeation ([2]; day 1): 6 Micrograms/2.4 sq. cm. | mouse skin permeation ([2]; day 2): 10 Micrograms/2.4 sq. cm. | mouse skin permeation ([2]; day 3): 16 Micrograms/2.4 sq. cm. | Estimated size needed to deliver required dose [3]: 5 | flux rates in comparison to the corticosterones [1]: fairly high | FLUX (Feldman 1969) [1]: 8.2 × 10^-11 MOLES/CM^2 HR | FLUX (SCHAEFER 1979) [1]: 5.8 × 10^-10 MOLES/CM^2 HR and 4.6 × 10^-10 MOLES/CM^2 HR | oral effectiveness [4]: limited oral effectiveness

C[C@]12CC[C@@H]3c4ccc(O)cc4CC[C@H]3[C@@H]1C[C@@H](O)[C@@H]2O [Estriol]
FLUX (SCHAEFER 1979) [1]: 7.8 × 10^-11 MOLES/CM^2 HR

C[C@]12CCC(=O)C=C1CC[C@@H]1[C@@H]2[C@@H](O)C[C@@]2(C)[C@H]1CC[C@]2(O)C(=O)CO [Hydrocortisone]
FLUX (Feldman 1969) [1]: 2.5 × 10^-11 MOLES/CM^2 HR | increase in the penetration of hydrocortisone ([5]; modified skin, when the skin is occluded): tenfold increase | penetration of hydrocortisone when the skin is occluded ([5]; through modified skin, occluded): 10% | penetration of hydrocortisone before increase ([5]; through modified skin, starting value, not occluded): 1%

C#C[C@]1(O)CC[C@H]2[C@@H]3CCC4=CC(=O)CC[C@@H]4[C@H]3CC[C@@]21CC [Levonorgestrel, levonorgestrel]
Minimum dose absorbed [2]: 43-160 mcg./24 hr. | delivery across freshly excised mouse skin [2]: 43 micrograms/day | Rate of permeation ([2]; Table 3): 0.75-2.8 mcg./sq. cm./hr. | skin permeation / release profile ([2]; abdominal skin of nude mouse): zero order release; also recorded: zero order rate | average rate of release (maximum flux rates) ([2]; aliquots during 8 hours on day 2, day 3 and day 7, 2.4 square centimeter patch): 6.7 micrograms per hour | mouse skin permeation ([2]; day 1): about 25 Micrograms/2.4 sq. cm. | mouse skin permeation ([2]; day 2): 90 Micrograms/2.4 sq. cm. | mouse skin permeation ([2]; day 3): 140 Micrograms/2.4 sq. cm. | mouse skin permeation ([2]; day 7): 270 Micrograms/2.4 sq. cm. | mouse skin permeation ([2]; day 8): 375 Micrograms/2.4 sq. cm. | mouse skin permeation ([2]; day 9): 405 Micrograms/2.4 sq. cm. | mouse skin permeation ([2]; day 10): 570 Micrograms/2.4 sq. cm. | mouse skin permeation ([2]; day 11): 505 Micrograms/2.4 sq. cm. | mouse skin permeation ([2]; day 14): 590 Micrograms/2.4 sq. cm. | rate of skin permeation ([2]; during 24 hours, membrane area 2.4 square centimeters): approximately 43 ug/day | average rate of release (maximum flux rates) ([2]; from 6.7 micrograms per hour, days 2, 3 and 7): 160 micrograms per day/2.4 square/centimeters | Estimated size needed to deliver required dose ([3]; dose required 20 (levonorgestrel) or 25 (estradiol) mcg./day): 0.5 sq. cm. | estimated delivery from a patch ([3]; patch surface area 0.5 square centimeters): 20 micrograms per day | estimated delivery from a patch ([3]; patch surface area 5 square centimeters): 2.5 milligrams per day | dose sufficient to prevent fertility [6]: 30 micrograms per day

CC(=O)[C@H]1CC[C@H]2[C@@H]3CCC4=CC(=O)CC[C@]4(C)[C@H]3CC[C@]12C [Progesteone, progesterone]
flux rates in comparison to the corticosterones [1]: fairly high | FLUX (Feldman 1969) [1]: 3.4 × 10^-11 MOLES/CM^2 HR | accumulation in subcutaneous tissue and underlying muscle ([7]; in vivo): more pronounced with percutaneous than with subcutaneous administration

C#C[C@]1(O)CC[C@H]2[C@@H]3CCc4cc(O)ccc4[C@H]3CC[C@@]21C [ethinylestradiol]
oral effectiveness [4]: active orally | inactivation by the liver and other tissues ([4]; oral): very low

CN(Cc1cnc2nc(N)nc(N)c2n1)c1ccc(C(=O)N[C@@H](CCC(=O)O)C(=O)O)cc1 [methotrexate]
reduction of the duration of the reservoir ([7]; irritation increases epidermal turnover): ~50%

CN1CCCC1c1cccnc1 (stereo not shown) [nicotine]
period maintained in the reservoir ([7]; compound which very rapidly penetrates and diffuses): 3 to 4 days

estrogen
accumulation in subcutaneous tissue and underlying muscle ([7]; percutaneous versus subcutaneous administration): more pronounced with percutaneous than with subcutaneous administration
